This is an account of results in patent US7943653B2 (priority 2008, dated 2011).

Read-outs that look alike come from different tables or passages of the source.

The target in test [1] is T1, human CB2 receptor (Homo sapiens, UniProt P34972).
T1 construct: expressed in transfected cells; host or cells: SK-N-MC cells, stably transfected with pcDNA3 CB-2 (human); semi-purified membrane pellet
The test can be described thus: Binding assay, cannabinoid CB2 receptor, [3H]-CP-55,940 displacement. To be noted: for inhibition at 1 µM / inhibition at 0.2 µM: read-out: Cannabinoid CB2 Receptor Binding, percent inhibition; for IC50: membranes of SK-N-MC cells expressing human CB2, calculated by linear regression from percent inhibition at various concentrations. On the procedure: (§1) The human CB1 and CB2 receptors were stably expressed in SK-N-MC cells transfected with pcDNA3 CB-1 (human) or pcDNA3 CB-2 (human). The cells were grown in T-180 cell culture flasks under standard cell culture conditions at 37° C. in a 5% CO2 atmosphere. The cells were harvested by trysinization and homogenized in a homogenization buffer (10 mM Tris, 0.2 mM MgCl2, 5 mM KCl, with protease inhibitors aprotinin, leupeptin, pepstatin A and bacitracin) and centrifuged (2000 g). The supernatant was then centrifuged in 2M sucrose (31,300 g) to produce a semi-purified membrane pellet. The pellet was resuspended in homogenization and stored at −80° C.
(§2) On the day of the assay, the pellet was thawed on ice and diluted in assay buffer (50 mM Tris-HCl, 5 mM MgCl2, 2.5 mM EDTA, 0.5 mg/mL fatty acid free bovine serum albumin, pH 7.5). The diluted membrane pellet was added with buffer, either a test compound or vehicle standard and the radioligand [H]^3+-CP-55,940 (0.2 nM) to the wells of a 96-well polypropylene plate. Non-specific binding was measured in wells containing WIN 55,212 (10 uM). The plate was covered and incubated for 90 minutes at 30° C. The contents were then aspirated onto a Packard Unifilter GF/C filter bottom plate prewet with 0.5% polyethyleneimine. The wells of the polypropylene plate were rinsed and aspirated seven times with a 0.9% saline-0.5% Tween 20 solution. The Unifilter plate was dried, scintillation cocktail was added to each well and the counts representing binding were quantitated in a TopCount scintillation counter.
(§3) For compounds tested, an IC50 binding value was obtained from percent inhibition studies in which various test concentrations were used. The binding value was calculated by linear regression.
(§4) For compounds without an IC50 binding value, the percent inhibition (%) was obtained at a test concentration of ^a1.0 μM or ^b0.2 μM.

Test [2] has as its target T2, human CB1 receptor (Homo sapiens, UniProt P21554).
T2 construct: expressed in transfected cells; host or cells: SK-N-MC cells, stably transfected with pcDNA3 CB-1 (human); semi-purified membrane pellet
The experiment in a line: Binding assay, cannabinoid CB1 receptor, [3H]-CP-55,940 displacement. On the procedure: as §1, §2, §3, §4

Setting [3] is: membranes of SK-N-MC cells expressing human CB1, calculated by linear regression from percent inhibition at various concentrations, read-out: Cannabinoid CB1 Receptor Binding, IC50 binding value.
The mark [4] stands for this setting: read-out: Cannabinoid CB1 Receptor Binding, percent inhibition.

T1 sequence (P34972 whole entry): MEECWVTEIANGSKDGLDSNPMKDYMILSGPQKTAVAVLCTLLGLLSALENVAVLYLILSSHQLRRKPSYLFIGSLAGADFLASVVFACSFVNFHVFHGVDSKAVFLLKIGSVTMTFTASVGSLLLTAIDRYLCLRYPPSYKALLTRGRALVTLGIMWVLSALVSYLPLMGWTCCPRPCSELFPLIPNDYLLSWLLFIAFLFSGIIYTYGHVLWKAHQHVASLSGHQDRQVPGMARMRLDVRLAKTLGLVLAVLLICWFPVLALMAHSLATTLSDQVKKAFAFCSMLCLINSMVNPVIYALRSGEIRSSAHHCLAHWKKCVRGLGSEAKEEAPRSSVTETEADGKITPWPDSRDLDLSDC
T2 sequence (P21554 whole entry): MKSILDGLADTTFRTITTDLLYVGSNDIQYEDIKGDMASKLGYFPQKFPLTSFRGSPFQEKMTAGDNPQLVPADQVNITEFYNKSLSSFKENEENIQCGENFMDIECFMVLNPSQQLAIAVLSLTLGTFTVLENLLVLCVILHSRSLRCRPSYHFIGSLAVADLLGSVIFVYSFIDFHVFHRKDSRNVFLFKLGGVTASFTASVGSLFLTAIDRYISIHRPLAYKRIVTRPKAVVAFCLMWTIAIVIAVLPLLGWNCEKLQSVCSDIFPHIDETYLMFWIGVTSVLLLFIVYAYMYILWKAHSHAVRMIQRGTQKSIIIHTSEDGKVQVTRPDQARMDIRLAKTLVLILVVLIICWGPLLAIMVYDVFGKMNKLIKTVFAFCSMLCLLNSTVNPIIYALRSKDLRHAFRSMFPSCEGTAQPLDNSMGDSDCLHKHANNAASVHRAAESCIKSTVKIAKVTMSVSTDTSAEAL

Take `CC(=Cc1ccc(Cl)cc1)c1c(C)c(C(=O)N[C@H](C)C2CCCCC2)nn1-c1ccc(Cl)cc1Cl` [Cpd 8, 5-[2-(4-chloro-phenyl)-1-methyl-vinyl]-1-(2,4-dichloro-phenyl)-4-methyl-1H-pyrazole-3-carboxylic acid [(1R)-1-cyclohexyl-ethyl]-amide]: the inhibition at 1 µM in test [1] is 39%. The compound further returned an IC50 in test [2] of 310 nM. Consider `CC(=Cc1ccc(Cl)cc1)c1c(C)c(C(=O)N[C@H](C)c2ccccc2)nn1-c1ccc(F)cc1F` [Cpd 23, 5-[2-(4-chloro-phenyl)-1-methyl-vinyl]-1-(2,4-difluoro-phenyl)-4-methyl-1H-pyrazole-3-carboxylic acid [(1R)-1-phenyl-ethyl]-amide], for which the half-inhibitory concentration (IC50) in test [2] (setting [3]) is 300 nM. As for `CC(=Cc1ccc(Cl)cc1)c1c(C)c(C(=O)NC2CCCCC2C)nn1-c1ccc(Cl)cc1Cl` (stereo not shown) [Cpd 7, 5-[2-(4-chloro-phenyl)-1-methyl-vinyl]-1-(2,4-dichloro-phenyl)-4-methyl-1H-pyrazole-3-carboxylic acid (2-methyl-cyclohexyl)-amide], the inhibition at 1 µM in test [1] was 55%. For the same compound, the IC50 in test [2] (setting [3]) was 110 nM. In the case of `CC(=Cc1ccc(Cl)cc1)c1c(C)c(C(=O)NCC2CCCCC2)nn1-c1ccc(Cl)cc1Cl` [Cpd 9, 5-[2-(4-chloro-phenyl)-1-methyl-vinyl]-1-(2,4-dichloro-phenyl)-4-methyl-1H-pyrazole-3-carboxylic acid cyclohexylmethyl-amide], the inhibition at 1 µM in test [1] is 49%. Besides, in test [2] (setting [3]), the concentration for half-maximal inhibition (IC50) was 370 nM.

In the case of `CC(=Cc1ccc(Cl)cc1)c1c(C)c(C(=O)Nc2ccccc2)nn1-c1ccc(Cl)cc1Cl` [Cpd 10, 5-[2-(4-chloro-phenyl)-1-methyl-vinyl]-1-(2,4-dichloro-phenyl)-4-methyl-1H-pyrazole-3-carboxylic acid phenylamide], the inhibition at 1 µM in test [1] amounted to 46%. In addition, the IC50 in test [2] (setting [3]) was 600 nM. Turning to `CC(=Cc1cccc(Cl)c1)c1c(C)c(C(=O)N[C@H](C)c2ccccc2)nn1-c1ccc(Cl)cc1Cl` [Cpd 19, 5-[2-(3-chloro-phenyl)-1-methyl-vinyl]-1-(2,4-dichloro-phenyl)-4-methyl-1H-pyrazole-3-carboxylic acid [(1R)-1-phenyl-ethyl]-amide], the half-maximal inhibitory concentration (IC50) in test [2] (setting [3]) was 370 nM. Turning to `CC(=Cc1ccc(Cl)cc1)c1c(C)c(C(=O)N[C@@H]2C(C)(C)[C@@H]3CC[C@]2(C)C3)nn1-c1ccc(Cl)cc1Cl` [Cpd 3, 5-[2-(4-chloro-phenyl)-1-methyl-vinyl]-1-(2,4-dichloro-phenyl)-4-methyl-1H-pyrazole-3-carboxylic acid [(1R,2S,4R)-1,3,3-trimethyl-bicyclo[2.2.1]hept-2-yl]-amide], the inhibition at 1 µM in test [1] turned out to be 31%. In addition, the IC50 in test [2] was found to be 50 nM.

For the compound `CC(=Cc1ccc(Cl)cc1)c1c(C)c(C(=O)NC2CCCCC2)nn1-c1ccc(Cl)cc1Cl` [Cpd 6, 5-[2-(4-chloro-phenyl)-1-methyl-vinyl]-1-(2,4-dichloro-phenyl)-4-methyl-1H-pyrazole-3-carboxylic acid cyclohexylamide], the inhibition at 1 µM in test [1] stood at 40%. In test [2] (setting [3]), the half-inhibitory concentration (IC50) is 130 nM. On to `CC[C@@H](C)NC(=O)c1nn(-c2ccc(Cl)cc2Cl)c(C(C)=Cc2ccc(Cl)cc2)c1C` [Cpd 28, 5-[2-(4-chloro-phenyl)-1-methyl-vinyl]-1-(2,4-dichloro-phenyl)-4-methyl-1H-pyrazole-3-carboxylic acid [(R)-sec-butyl]-amide], for which the inhibition at 0.2 µM in test [1] amounted to 21%. The IC50 in test [2] is 70 nM. Turning to `CC(=Cc1cccc(Cl)c1)c1c(C)c(C(=O)N[C@@H](C)c2ccccc2)nn1-c1ccc(Cl)cc1Cl` [Cpd 17, 5-[2-(3-chloro-phenyl)-1-methyl-vinyl]-1-(2,4-dichloro-phenyl)-4-methyl-1H-pyrazole-3-carboxylic acid [(1S)-1-phenyl-ethyl]-amide], the 50% inhibitory concentration (IC50) in test [2] (setting [3]) is 250 nM. `CC(=Cc1cccc(Cl)c1)c1c(C)c(C(=O)N[C@H](C)C2CCCCC2)nn1-c1ccc(Cl)cc1Cl` [Cpd 18, 5-[2-(3-chloro-phenyl)-1-methyl-vinyl]-1-(2,4-dichloro-phenyl)-4-methyl-1H-pyrazole-3-carboxylic acid [(1R)-1-cyclohexyl-ethyl]-amide] came in with an IC50 in test [2] of 90 nM. Still for that read-out and setting: with `CC(=Cc1cccc(Cl)c1)c1c(C)c(C(=O)N[C@@H](C)C2CCCCC2)nn1-c1ccc(Cl)cc1Cl` [Cpd 16, 5-[2-(3-chloro-phenyl)-1-methyl-vinyl]-1-(2,4-dichloro-phenyl)-4-methyl-1H-pyrazole-3-carboxylic acid [(1S)-1-cyclohexyl-ethyl]-amide] the figure was 330 nM.

As for `CC(=Cc1cccc(Cl)c1)c1c(C)c(C(=O)NN2CCCCC2)nn1-c1ccc(Cl)cc1Cl` [Cpd 12, 5-[2-(3-chloro-phenyl)-1-methyl-vinyl]-1-(2,4-dichloro-phenyl)-4-methyl-1H-pyrazole-3-carboxylic acid piperidin-1-ylamide], the IC50 in test [2] (setting [3]) was 250 nM. On to `CC(=Cc1cccc(Cl)c1)c1c(C)c(C(=O)NN2CCOCC2)nn1-c1ccc(Cl)cc1Cl` [Cpd 13, 5-[2-(3-chloro-phenyl)-1-methyl-vinyl]-1-(2,4-dichloro-phenyl)-4-methyl-1H-pyrazole-3-carboxylic acid morpholin-4-ylamide], for which the inhibition at 1 µM in test [2] (setting [4]) was 53%. As to `CNC(=O)c1nn(-c2ccc(Cl)cc2Cl)c(C(C)=Cc2ccc(Cl)cc2)c1C` [Cpd 27, 5-[2-(4-chloro-phenyl)-1-methyl-vinyl]-1-(2,4-dichloro-phenyl)-4-methyl-1H-pyrazole-3-carboxylic acid methylamide], the values for the inhibition at 0.2 µM in test [1] and in test [2] (setting [4]) were 18% and 11%, respectively. For the compound `CC(=Cc1ccc(Cl)cc1)c1c(C)c(C(=O)N[C@@H](C)C2CCCCC2)nn1-c1ccc(F)cc1F` [Cpd 21, 5-[2-(4-chloro-phenyl)-1-methyl-vinyl]-1-(2,4-difluoro-phenyl)-4-methyl-1H-pyrazole-3-carboxylic acid [(1S)-1-cyclohexyl-ethyl]-amide], the IC50 in test [2] (setting [3]) was 130 nM. Turning to `CC[C@H](C)NC(=O)c1nn(-c2ccc(Cl)cc2Cl)c(C(C)=Cc2ccc(Cl)cc2)c1C` [Cpd 29, 5-[2-(4-chloro-phenyl)-1-methyl-vinyl]-1-(2,4-dichloro-phenyl)-4-methyl-1H-pyrazole-3-carboxylic acid [(S)-sec-butyl]-amide], the inhibition at 0.2 µM in test [1] amounted to 9%; in test [2] (setting [4]) it was 52%. Consider `CC(=Cc1ccc(Cl)cc1)c1c(C)c(C(=O)N[C@H](C)C2CCCCC2)nn1-c1ccc(F)cc1F` [Cpd 24, 5-[2-(4-chloro-phenyl)-1-methyl-vinyl]-1-(2,4-difluoro-phenyl)-4-methyl-1H-pyrazole-3-carboxylic acid [(1R)-1-cyclohexyl-ethyl]-amide], for which, in test [2] (setting [3]), the concentration for half-maximal inhibition (IC50) is 280 nM.

For `CC(=Cc1ccc(Cl)cc1)c1c(C)c(C(=O)NN2CCCCC2)nn1-c1ccc(Cl)cc1Cl` [Cpd 4, 5-[2-(4-chloro-phenyl)-1-methyl-vinyl]-1-(2,4-dichloro-phenyl)-4-methyl-1H-pyrazole-3-carboxylic acid piperidin-1-ylamide], the IC50 in test [1] was 1700 nM; in test [2], 90 nM.

`CC(=Cc1ccc(Cl)cc1)c1c(C)c(C(=O)NN2CCOCC2)nn1-c1ccc(Cl)cc1Cl` [Cpd 5, 5-[2-(4-chloro-phenyl)-1-methyl-vinyl]-1-(2,4-dichloro-phenyl)-4-methyl-1H-pyrazole-3-carboxylic acid morpholin-4-ylamide]: the half-inhibitory concentration (IC50) in test [1] is 2000 nM; in test [2] (setting [3]), 360 nM. Turning to `CC(=Cc1ccc(Cl)cc1)c1c(C)c(C(=O)N[C@@H](C)C2CCCCC2)nn1-c1ccc(Cl)cc1Cl` [Cpd 1, 5-[2-(4-chloro-phenyl)-1-methyl-vinyl]-1-(2,4-dichloro-phenyl)-4-methyl-1H-pyrazole-3-carboxylic acid [(1S)-1-cyclohexyl-ethyl]-amide], the inhibition at 1 µM in test [1] was 42%. Besides, the 50% inhibitory concentration (IC50) in test [2] came to 20 nM. The matching figures for `CC(=Cc1ccc(Cl)cc1)c1c(C)c(C(=O)N[C@H](C)c2ccccc2)nn1-c1ccc(Cl)cc1Cl` [Cpd 11, 5-[2-(4-chloro-phenyl)-1-methyl-vinyl]-1-(2,4-dichloro-phenyl)-4-methyl-1H-pyrazole-3-carboxylic acid [(1R)-1-phenyl-ethyl]-amide]: 51% and 340 nM. Consider `CC(=Cc1ccc(Cl)cc1)c1c(C)c(C(=O)N[C@@H](C)c2ccccc2)nn1-c1ccc(Cl)cc1Cl` [Cpd 2, 5-[2-(4-chloro-phenyl)-1-methyl-vinyl]-1-(2,4-dichloro-phenyl)-4-methyl-1H-pyrazole-3-carboxylic acid [(1S)-1-phenyl-ethyl]-amide], for which the inhibition at 1 µM in test [1] stood at 32%. Moreover, the IC50 in test [2] was determined as 20 nM.
